Results: article PMC6072100, “Exploring the links between peptoid antibacterial activity and toxicity” (MedChemComm, 2017)
Square brackets hold non-standard residues; d marks the D form. Peptide text beside a SMILES is read from it. N(4-F-Bzl)Gly = O=C(O)CNCc1ccc(F)cc1; Gly(N-(CH2)6NH2) = NCCCCCCNCC(=O)O; Gly(N-2-aminoethyl) = NCCNCC(=O)O; Nspe = C[C@H](NCC(=O)O)c1ccccc1; NhArg = N=C(N)NCCCCNCC(=O)O; Nphe = O=C(O)CNCc1ccccc1; Nlys = NCCCCNCC(=O)O

Experiments:
[1] = Cytotoxicity assay with HepG2 (alamarBlue); format: cell-based, human; settings: human, HepG2 cells
Method: The activity of our peptoid library was assessed against both bacterial and mammalian cells to gain a broader understanding of the factors that lead to effective and selective antimicrobial peptoids. We screened for broad-spectrum antibacterial activity against Gram-negative (Escherichia coli and Pseudomonas aeruginosa) and Gram-positive (Staphylococcus aureus and S. epidermidis) bacteria. The toxicity of the library was also assessed against two mammalian cell lines; HaCaT spontaneously transformed aneuploid keratinocytes were employed to model toxicity against human skin cells and HepG2, a cell line derived from a human liver carcinoma, were used as a study on polarised human hepatocytes. Detailed methods for these assays can be found in the ESI. ^‡ […]
Please note – ED50, the median effective dose, was defined as the dose that kills 50% of cells.
Cytotoxicity analyses were performed in 96-well plates (Costar, Fisher Scientific) using alamarBlue® (Invitrogen) for cell viability detection using a modified protocol as described previously. HepG2 or HaCaT cells were subcultured at 37 °C, 5% CO2 in DMEM high glucose supplemented with heat-inactivated foetal bovine sera (FBS, 10%; Biosera Ltd) and penicillin/streptomycin (P/S, 1%). Cells were counted using a Neubauer Improved Haemocytometer. HepG2 cells were seeded 1 day prior to treatment in 96 well plates at a concentration of 2 × 10^5 cells per mL in 100 μL of medium (2 × 10^4 cells per well). Then cells were pre-incubated with the compounds in triplicate in a dilution series in triplicate from 2–100 μM (5 mM stock solutions in DMSO diluted from 100 μM to 3 μM; untreated cells with DMSO as a negative control) in 50 μl of the media for 1 hour. Afterwards, 40 μL were removed from each well before the addition of 90 μL of the media, followed by incubation for 24 hours at 37 °C, 5% CO2. Then, 10 μL of alamarBlue® (Invitrogen) was added to each well before a 2 hour incubation prior to assessing cell viability using a fluorescent plate reader (Biotek; Ex 560 nm/Em 600 nm). All data were measured in triplicate on a minimum of two occasions to ensure a robust data set was collected. The ED50 values were calculated from the dose response results achieved from the serial dilutions.
Cytotoxicity assay with HepG2
Cytotoxicity analyses were performed in 96-well plates (Costar, Fisher Scientific) using alamarBlue® (Invitrogen) for cell viability detection using a modified protocol as previously described. The HepG2 cells were grown at 37 °C, 5% CO2 in DMEM high glucose supplemented with heat-inactivated foetal bovine sera (FBS, 10%; Biosera Ltd) and penicillin/streptomycin (P/S, 1%). Cells were counted using a Neubauer Improved Haemocytometer. HepG2 cells were seeded 1 day prior to treatment in 96 well plates at a concentration of 2x10^5 cells/mL in 100 µL of medium (2x10^4 cells/well). Then cells were pre-incubated with the compounds in triplicate (5 mM stock solutions in DMSO diluted from 100 µM to 3 µM; untreated cells with DMSO as a negative control) in 50 µl of the media for 1 hour.
Afterwards, 40 µL were removed from each well before the addition of 90 µL of the media, followed by incubation for 24 hours at 37 °C, 5% CO2. Then, 10 µL of alamarBlue® (Invitrogen) was added to each well before a 2 hour incubation prior to assessing cell viability using a fluorescent plate reader (Biotek; Ex 560 nm / Em 600 nm). All data was measured in triplicate on a minimum of two occasions to ensure a robust data set was collected. The ED50 values were calculated from the dose response results achieved from the serial dilutions. […]
5% CO2 in DMEM high glucose supplemented with heat-inactivated foetal bovine sera (FBS, 10%; Biosera Ltd) and penicillin/streptomycin (P/S, 1%). Cells were counted using a Neubauer […]
Empty wells were filled with 100 µL PBS. After 24 hours, cells were incubated with the compounds in a dilution series in triplicate from 2 – 100 µM (5 mM stock solutions in DMSO […]

[2] = Skin cell toxicity assay with HaCaT (alamarBlue); format: cell-based, human; settings: human, HaCaT cells (keratinocytes)
How it was run: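 HaCaT cells seeded at 2x10^4 per well 24 hours before 1-hour exposure to a 2–100 µM triplicate dilution series in DMEM high glucose with 10% FBS at 37 °C, 5% CO2. Viability assessed with alamarBlue; ED50 defined as dose killing 50% of cells, derived from dose-response data.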

[3] = dose that kills 50% of cells, 2–100 μM, 1 h with compound then 24 h, alamarBlue, read-out: ED50 HepG2
[4] = dose that kills 50% of cells, 2–100 μM, 1 h with compound then 24 h, alamarBlue, read-out: ED50 HaCaT

Structure (SMILES)	CC50 at 24 h [1, 3] [µM]	CC50 at 24 h [2, 4] [µM]	CC50 at 24 h ([1]; ED50 HepG2) [µM]	CC50 at 24 h ([2]; ED50 HaCaT) [µM]
C[C@@H](c1ccccc1)N(CC(N)=O)C(=O)CN(Cc1ccc(F)cc1)C(=O)CN(CCCCN)C(=O)CN(C(=O)CN(Cc1ccc(F)cc1)C(=O)CN(CCCCN)C(=O)CN(C(=O)CN(Cc1ccc(F)cc1)C(=O)CNCCCCN)[C@@H](C)c1ccccc1)[C@@H](C)c1ccccc1 [Peptoid 27, (NLysNpfbNspe)3]	36	52	–	–
CCCCCN(CC(=O)N(CC(=O)N(CC(=O)N(CCCCN)CC(=O)N(CC(=O)N(CC(N)=O)[C@@H](C)c1ccccc1)[C@@H](C)c1ccccc1)[C@@H](C)c1ccccc1)[C@@H](C)c1ccccc1)C(=O)CN(C(=O)CN(C(=O)CN(CCCCN)C(=O)CN(C(=O)CN(C(=O)CNCCCCN)[C@@H](C)c1ccccc1)[C@@H](C)c1ccccc1)[C@@H](C)c1ccccc1)[C@@H](C)c1ccccc1 [Peptoid 32, (NLysNspeNspe)2(NamyNspeNspe)(NLysNspeNspe)]	–	–	22	20
C[C@@H](c1ccccc1)N(CC(N)=O)C(=O)CN(C(=O)CN(CCCCNC(=N)N)C(=O)CN(C(=O)CN(C(=O)CN(CCCCNC(=N)N)C(=O)CN(C(=O)CN(C(=O)CN(CCCCNC(=N)N)C(=O)CN(C(=O)CN(C(=O)CNCCCCNC(=N)N)[C@@H](C)c1ccccc1)[C@@H](C)c1ccccc1)[C@@H](C)c1ccccc1)[C@@H](C)c1ccccc1)[C@@H](C)c1ccccc1)[C@@H](C)c1ccccc1)[C@@H](C)c1ccccc1 [Peptoid 34, (NhArgNspeNspe)4] (H-[NhArg][Nspe][Nspe][NhArg][Nspe][Nspe][NhArg][Nspe][Nspe][NhArg][Nspe][Nspe]-NH2)	–	–	12	11
NCCNCC(=O)N(CC(=O)N(CC(=O)N(CCN)CC(=O)N(CC(=O)N(CC(N)=O)Cc1ccccc1)Cc1ccccc1)Cc1ccccc1)Cc1ccccc1 [Peptoid 9, (NaeNpheNphe)2] (H-[Gly(N-2-aminoethyl)][Nphe][Nphe][Gly(N-2-aminoethyl)][Nphe][Nphe]-NH2)	–	–	100	100
NCCCCCCNCC(=O)N(CC(=O)N(CC(=O)N(CCCCCCN)CC(=O)N(CC(=O)N(CC(=O)N(CCCCCCN)CC(=O)N(CC(=O)N(CC(=O)N(CCCCCCN)CC(=O)N(CC(=O)N(CC(N)=O)Cc1ccccc1)Cc1ccccc1)Cc1ccccc1)Cc1ccccc1)Cc1ccccc1)Cc1ccccc1)Cc1ccccc1)Cc1ccccc1 [Peptoid 1, (NahNpheNphe)4] (H-[Gly(N-(CH2)6NH2)][Nphe][Nphe][Gly(N-(CH2)6NH2)][Nphe][Nphe][Gly(N-(CH2)6NH2)][Nphe][Nphe][Gly(N-(CH2)6NH2)][Nphe][Nphe]-NH2)	–	–	100	100
NCCNCC(=O)N(CC(=O)N(CC(=O)N(CCN)CC(=O)N(CC(=O)N(CC(=O)N(CCN)CC(=O)N(CC(=O)N(CC(=O)N(CCN)CC(=O)N(CC(=O)N(CC(N)=O)Cc1ccccc1)Cc1ccccc1)Cc1ccccc1)Cc1ccccc1)Cc1ccccc1)Cc1ccccc1)Cc1ccccc1)Cc1ccccc1 [Peptoid 7, (NaeNpheNphe)4] (H-[Gly(N-2-aminoethyl)][Nphe][Nphe][Gly(N-2-aminoethyl)][Nphe][Nphe][Gly(N-2-aminoethyl)][Nphe][Nphe][Gly(N-2-aminoethyl)][Nphe][Nphe]-NH2)	–	–	100	100
NCCCCNCC(=O)N(CC(=O)N(CC(=O)N(CCCCN)CC(=O)N(CC(=O)N(CC(=O)N(CCCCN)CC(=O)N(CC(=O)N(CC(=O)N(CCCCN)CC(=O)N(CC(=O)N(CC(N)=O)Cc1cccc(F)c1)Cc1cccc(F)c1)Cc1cccc(F)c1)Cc1cccc(F)c1)Cc1cccc(F)c1)Cc1cccc(F)c1)Cc1cccc(F)c1)Cc1cccc(F)c1 [Peptoid 24, (NLysNmfbNmfb)4]	–	–	17	25
C[C@@H](c1ccccc1)N(CC(N)=O)C(=O)CN(C(=O)CN(CCCCCCN)C(=O)CN(C(=O)CN(C(=O)CNCCCCCCN)[C@@H](C)c1ccccc1)[C@@H](C)c1ccccc1)[C@@H](C)c1ccccc1 [Peptoid 12, (NahNspeNspe)2]	–	–	100	100
COc1ccc(CN(CC(N)=O)C(=O)CN(Cc2ccc(OC)cc2)C(=O)CN(CCCCN)C(=O)CN(Cc2ccc(OC)cc2)C(=O)CN(Cc2ccc(OC)cc2)C(=O)CN(CCCCN)C(=O)CN(Cc2ccc(OC)cc2)C(=O)CN(Cc2ccc(OC)cc2)C(=O)CN(CCCCN)C(=O)CN(Cc2ccc(OC)cc2)C(=O)CN(Cc2ccc(OC)cc2)C(=O)CNCCCCN)cc1 [Peptoid 19, (NLysNpmbNpmb)4]	–	–	100	41
CCCCCNCC(=O)N(CC(=O)N(CC(=O)N(CCCCC)CC(=O)N(CC(=O)N(CC(=O)N(CCCCN)CC(=O)N(CC(=O)N(CC(=O)N(CCCCN)CC(=O)N(CC(=O)N(CC(N)=O)[C@@H](C)c1ccccc1)[C@@H](C)c1ccccc1)[C@@H](C)c1ccccc1)[C@@H](C)c1ccccc1)[C@@H](C)c1ccccc1)[C@@H](C)c1ccccc1)[C@@H](C)c1ccccc1)[C@@H](C)c1ccccc1 [Peptoid 31, (NamyNspeNspe)2(NLysNspeNspe)2]	–	–	18	20
NCCNCC(=O)N(CC(=O)N(CC(=O)N(CCN)CC(=O)N(CC(=O)N(CC(=O)N(CCN)CC(=O)N(CC(=O)N(CC(N)=O)Cc1ccccc1)Cc1ccccc1)Cc1ccccc1)Cc1ccccc1)Cc1ccccc1)Cc1ccccc1 [Peptoid 8, (NaeNpheNphe)3] (H-[Gly(N-2-aminoethyl)][Nphe][Nphe][Gly(N-2-aminoethyl)][Nphe][Nphe][Gly(N-2-aminoethyl)][Nphe][Nphe]-NH2)	–	–	100	100
NCCCCNCC(=O)N(CC(=O)N(CC(=O)N(CCCCN)CC(=O)N(CC(=O)N(CC(=O)N(CCCCN)CC(=O)N(CC(=O)N(CC(=O)N(CCCCN)CC(=O)N(CC(=O)N(CC(N)=O)Cc1ccc(F)cc1)Cc1ccc(F)cc1)Cc1ccc(F)cc1)Cc1ccc(F)cc1)Cc1ccc(F)cc1)Cc1ccc(F)cc1)Cc1ccc(F)cc1)Cc1ccc(F)cc1 [Peptoid 22, (NLysNpfbNpfb)4] (H-[Nlys][N(4-F-Bzl)Gly][N(4-F-Bzl)Gly][Nlys][N(4-F-Bzl)Gly][N(4-F-Bzl)Gly][Nlys][N(4-F-Bzl)Gly][N(4-F-Bzl)Gly][Nlys][N(4-F-Bzl)Gly][N(4-F-Bzl)Gly]-NH2)	–	–	30	46
C[C@@H](c1ccccc1)N(CC(N)=O)C(=O)CN(C(=O)CN(CCN)C(=O)CN(C(=O)CN(C(=O)CN(CCN)C(=O)CN(C(=O)CN(C(=O)CN(CCN)C(=O)CN(C(=O)CN(C(=O)CNCCN)[C@@H](C)c1ccccc1)[C@@H](C)c1ccccc1)[C@@H](C)c1ccccc1)[C@@H](C)c1ccccc1)[C@@H](C)c1ccccc1)[C@@H](C)c1ccccc1)[C@@H](C)c1ccccc1 [Peptoid 16, (NaeNspeNspe)4] (H-[Gly(N-2-aminoethyl)][Nspe][Nspe][Gly(N-2-aminoethyl)][Nspe][Nspe][Gly(N-2-aminoethyl)][Nspe][Nspe][Gly(N-2-aminoethyl)][Nspe][Nspe]-NH2)	–	–	41	26
C[C@@H](c1ccccc1)N(CC(N)=O)C(=O)CN(C(=O)CN(CCCCN)C(=O)CN(C(=O)CN(C(=O)CN(CCCCN)C(=O)CN(C(=O)CN(C(=O)CNCCCCN)[C@@H](C)c1ccccc1)[C@@H](C)c1ccccc1)[C@@H](C)c1ccccc1)[C@@H](C)c1ccccc1)[C@@H](C)c1ccccc1 [Peptoid 14, (NLysNspeNspe)3] (H-[Nlys][Nspe][Nspe][Nlys][Nspe][Nspe][Nlys][Nspe][Nspe]-NH2)	100	100	–	–
